US12152012B2, “BRAG2 inhibitors and applications thereof” (CENTRE NATIONAL DE LA RECHERCHE SCIENTIFIQUE, priority 2018, dated 2024)

How the values were obtained:
[1] = system: EEA1 (early endosome marker) in Hela cells; assay: Immunostaining and confocal microscopy of Hela cells; format: cell-based, human; details: 50 μM, 30 min
Protocol: FIG. 1. Bragsin2 affects Arf pathways in cells • a. Chemical structures of Bragsin1 and Bragsin2 and derivatives used in this study. Chemical synthesis and structural characterization of the compounds are described in example 6. • b. Bragsin2 disperses the TGN46 and GM130 markers. HeLa cells were treated with either DMSO (0.25%) or Bragsin2 (50 μM) for 30 min, immunostained for TGN46, GM130 or EEA1 (green channel) and analysed by confocal microscopy. Dispersion of GM130 and TGN46 by Bragsin2 is reversible. Hela cells were treated as in FIG. 1a and were incubated for an additional 30 min in fresh medium (wash panel) prior to immunostaining and confocal microscopy analysis. Expression of Arf-mCherry constructs carrying an activating mutation rescues the effect of Bragsin2. Hela cells were transfected with constitutively active Q/L mutants of Arf-mCherry. Note the difference between non-transfected cells (white asterisk) and transfected cells. Scale bars, 10 μm.
Hela cells were grown in Dulbecco's modified Eagle's medium supplemented with Glutamax™ and 10% fetal bovine serum (Invitrogen). For immunofluorescence studies, cells were grown on Labtek glass slides (Nunc) and transfected for 18 to 24 h using Lipofectamine 2000 (Invitrogen), according to the supplier's instructions. When specified, cells were treated with the indicated concentration of small molecule or corresponding volume of vehicle (DMSO) in growth medium for 30 min at 37° C.
Immunostaining procedure was as described in (Viaud, J. et al. Structure-based discovery of an inhibitor of Arf activation by Sec7 domains through targeting of protein-protein complexes. Proc Natl Acad Sci USA 104, 10370-5 (2007)) except that secondary antibody incubation was performed for 1h using Alexa 488-conjugated goat anti-mouse (1:600) or donkey anti-sheep (1:500) IgG and Alexa 647-conjugated phalloidin (1:100). Anti-GM130 was used at dilution 1:200. Images were bidirectionally recorded using an inverted Leica TCS SP8 laser-scanning confocal microscope with a 100× (N. A. 1.40) oil objective (HCX APO, Leica). Fluorochromes were detected sequentially using excitation laser lines at 488 nm (Alexa 488), 594 nm (mCherry) and 633 nm (Alexa 647). Stacks were generated using a z-step of 0.5 μm and processed using Fiji/ImageJ (Schindelin, J. et al. Fiji: an open-source platform for biological-image analysis. Nat Methods 9, 676-82 (2012)). Images are representative of at least two independent experiments.

[2] = molecular target: T1, Rac1/Trio (Homo sapiens, UniProt O75962); assay: Nucleotide exchange kinetics on liposomes, Rac1 tethered by hexahistidine tag; format: biochemical; details: 50 μM; Rac1 tethered to liposomes
T1 construct: human TRIO^DH1PH1 (1232-1550); made in house
Protocol: (§1) FIG. 2. Bragsin is a specific inhibitor of the ArfGEF BRAG2 • a. Bragsin1 has no effect on the Sec7 domain of human ArfGEFs in solution. Nucleotide exchange kinetics were measured by fluorescence kinetics in the presence of Bragsin1 (50 μM) or DMSO using purified Sec7 domains and a truncated version of Arf1 (D17Arf1), which can be activated in solution. […] Nucleotide exchange kinetics were determined in the presence of Bragsin1 (50 μM) or DMSO with ArfGEF constructs carrying membrane-binding domains and myristoylated Arf1. […] was artificially tethered to liposomes by a C-terminal hexahistidine tag as described in (Peurois, F. et al. Biochem J 474, 1259-1272 (2017). Representative kinetic profiles are given in FIG. 15. • c. Bragsin1 inhibits the activation of myristoylated Arf6 by BRAG2 on liposomes. Experiments were carried out as in FIG. 2b. Representative kinetic profiles are given in FIG. 16. • d. Dose-response of Bragsin1 and Bragsin2 towards myristoylated Arf1 and BRAG2 on liposomes. Experiments were carried out as in FIG. 2b. • e. Silencing of BRAG2 phenocopies the effect of Bragsin2 on the TGN46 compartment. […]
(§2) The effect of Bragsin1 on the GEF efficiency of representative human ArfGEFs was evaluated by fluorescence kinetics using highly purified recombinant Arf GTPases and ArfGEFs. […]

[3] = molecular target: T2, BRAG2 (activation of myristoylated Arf6) (Homo sapiens, UniProt Q6DN90); assay: Nucleotide exchange kinetics on liposomes, activation of myristoylated Arf6; format: biochemical; details: 50 μM
T2 construct: human BRAG2^Sec7 (390-594) and BRAG2^Sec7PH (390-811); made in house
T2 sequence (Q6DN90 512-933): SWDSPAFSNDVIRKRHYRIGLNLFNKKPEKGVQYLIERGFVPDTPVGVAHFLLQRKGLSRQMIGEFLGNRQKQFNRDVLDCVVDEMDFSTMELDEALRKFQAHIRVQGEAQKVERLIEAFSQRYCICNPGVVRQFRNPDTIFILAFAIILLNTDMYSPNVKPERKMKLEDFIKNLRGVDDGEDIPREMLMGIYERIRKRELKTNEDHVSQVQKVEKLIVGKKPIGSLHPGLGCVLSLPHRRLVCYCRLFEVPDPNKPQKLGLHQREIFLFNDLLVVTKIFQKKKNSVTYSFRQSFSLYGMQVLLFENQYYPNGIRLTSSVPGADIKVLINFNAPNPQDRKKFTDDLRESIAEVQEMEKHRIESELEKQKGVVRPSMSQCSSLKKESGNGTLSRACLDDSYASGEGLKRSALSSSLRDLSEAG
Protocol: as §1, §2

SMILES | Effect on early endosome marker EEA1 [1] | Effect on Rac1/Trio exchange activity on liposomes [2] | Inhibition of BRAG2-mediated activation of myristoylated Arf6 [3]
COc1ccc2oc(C(F)(F)F)cc(=O)c2c1[N+](=O)[O-] [Bragsin2, 6-methoxy-5-nitro-2-(trifluoromethyl)-4H-chromen-4-one] | no effect | – | –
Cc1ccc2oc(C(F)(F)F)cc(=O)c2c1[N+](=O)[O-] [Bragsin1, 6-methyl-5-nitro-2-(trifluoromethyl)-4H-chromen-4-one] | – | no effect | inhibits
